Measurements from the NIST ThermoML archive (doi:10.1021/je0301794).

Columns and labels:
[1] = xn = mol fraction of the nth substance listed; details: 101.3 kPa, Liquid
[2] = excess molar enthalpy (molar enthalpy of mixing); xn = mol fraction of the nth substance listed; details: 318.15 K, 101.3 kPa, Liquid

COC(=O)OC [dimethyl carbonate] + CCCCCCCC
[1]
Details	mass density [kg/m3]
293.15 K, x1 = 0.0513	711.1
293.15 K, x1 = 0.0997	719.8
293.15 K, x1 = 0.2027	740.5
293.15 K, x1 = 0.3063	764.5
293.15 K, x1 = 0.3994	789.1
293.15 K, x1 = 0.5123	823.6
293.15 K, x1 = 0.6078	857.4
293.15 K, x1 = 0.7137	901.2
293.15 K, x1 = 0.8055	945.8
293.15 K, x1 = 0.9061	1004
293.15 K, x1 = 0.9516	1034.3
293.15 K, x1 = 1	1070
298.15 K, x1 = 0.0558	707.8
298.15 K, x1 = 0.096	715
298.15 K, x1 = 0.1488	725.1
298.15 K, x1 = 0.2289	741.8
298.15 K, x1 = 0.2947	756.9
298.15 K, x1 = 0.4216	790.4
298.15 K, x1 = 0.4883	810.6
298.15 K, x1 = 0.4968	813.3
298.15 K, x1 = 0.5931	846.6
298.15 K, x1 = 0.6867	884.1
298.15 K, x1 = 0.7879	931.6
298.15 K, x1 = 0.8873	987.1
298.15 K, x1 = 0.9502	1027.7
298.15 K, x1 = 1	1063.5
303.15 K, x1 = 0.0519	702.9
303.15 K, x1 = 0.0827	708.3
303.15 K, x1 = 0.1947	729.9
303.15 K, x1 = 0.2829	749.4
303.15 K, x1 = 0.3948	778.1
303.15 K, x1 = 0.4942	807.5
303.15 K, x1 = 0.5964	842.4
303.15 K, x1 = 0.6983	883.1
303.15 K, x1 = 0.7886	925.2
303.15 K, x1 = 0.8946	984.3
303.15 K, x1 = 0.9545	1023.4
303.15 K, x1 = 1	1056.5
313.15 K, x1 = 0.0512	694.5
313.15 K, x1 = 0.1005	703
313.15 K, x1 = 0.186	719.2
313.15 K, x1 = 0.301	744.5
313.15 K, x1 = 0.4072	771.6
313.15 K, x1 = 0.5002	799.1
313.15 K, x1 = 0.6042	834.5
313.15 K, x1 = 0.709	876.3
313.15 K, x1 = 0.7993	918.8
313.15 K, x1 = 0.8465	944
313.15 K, x1 = 0.9524	1009.1
313.15 K, x1 = 1	1043.4
318.15 K, x1 = 0.0823	695.4
318.15 K, x1 = 0.1827	714.2
318.15 K, x1 = 0.2965	738.7
318.15 K, x1 = 0.3626	754.9
318.15 K, x1 = 0.436	774.6
318.15 K, x1 = 0.5156	798.6
318.15 K, x1 = 0.5606	813.4
318.15 K, x1 = 0.6305	838.7
318.15 K, x1 = 0.6756	856.4
318.15 K, x1 = 0.7428	885.6
318.15 K, x1 = 0.7845	905.6
318.15 K, x1 = 0.8233	925.5
318.15 K, x1 = 0.8711	951.7
318.15 K, x1 = 0.9071	973.5
318.15 K, x1 = 0.964	1010.8
318.15 K, x1 = 0.9761	1019.5
318.15 K, x1 = 1	1036.9

[2]
Details	excess molar enthalpy [kJ/mol]
x1 = 0.0844	0.687
x1 = 0.1746	1.25
x1 = 0.2622	1.69
x1 = 0.3463	1.99
x1 = 0.4232	2.15
x1 = 0.4922	2.21
x1 = 0.5544	2.21
x1 = 0.6104	2.16
x1 = 0.6455	2.11
x1 = 0.683	2.04
x1 = 0.7224	1.93
x1 = 0.7671	1.75
x1 = 0.8115	1.54
x1 = 0.8562	1.29
x1 = 0.8987	0.995
x1 = 0.9358	0.697
x1 = 0.9713	0.349
x1 = 1	0
